We go through 14 molecules from patent US20250171431A1, “HETEROCYCLIC INHIBITORS OF IGF-1R FOR TREATMENT OF DISEASE” (HORIZON THERAPEUTICS IRELAND DAC, priority 2023, published 2025).

In assay [1] the target is T1, IGF-1R (Homo sapiens (Human), UniProt P08069). Put plainly: Example B-1: IGF-1R Assay (PC3 cells, IGF1 stimulation, AlphaLISA). It is filed as cell-based. Conditions: 200 ng/mL IGF1 stimulation, read-out: Biological Activity against IGF-1R IC50. In short, it runs like this: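 Readout is AlphaLISA signal from lysed PC3 cells, expressed as % inhibition versus vehicle and EC80 controls and banded by IC50. Before lysis, the cells were starved of serum for 2 h, exposed to 3× serially diluted compound for 2 h, and stimulated for 30 min with 200 ng/mL IGF1 (final).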
(In general: In Alpha technology, singlet oxygen from a donor bead excites a nearby acceptor bead.)
Target sequence in this assay (P08069 31-1367): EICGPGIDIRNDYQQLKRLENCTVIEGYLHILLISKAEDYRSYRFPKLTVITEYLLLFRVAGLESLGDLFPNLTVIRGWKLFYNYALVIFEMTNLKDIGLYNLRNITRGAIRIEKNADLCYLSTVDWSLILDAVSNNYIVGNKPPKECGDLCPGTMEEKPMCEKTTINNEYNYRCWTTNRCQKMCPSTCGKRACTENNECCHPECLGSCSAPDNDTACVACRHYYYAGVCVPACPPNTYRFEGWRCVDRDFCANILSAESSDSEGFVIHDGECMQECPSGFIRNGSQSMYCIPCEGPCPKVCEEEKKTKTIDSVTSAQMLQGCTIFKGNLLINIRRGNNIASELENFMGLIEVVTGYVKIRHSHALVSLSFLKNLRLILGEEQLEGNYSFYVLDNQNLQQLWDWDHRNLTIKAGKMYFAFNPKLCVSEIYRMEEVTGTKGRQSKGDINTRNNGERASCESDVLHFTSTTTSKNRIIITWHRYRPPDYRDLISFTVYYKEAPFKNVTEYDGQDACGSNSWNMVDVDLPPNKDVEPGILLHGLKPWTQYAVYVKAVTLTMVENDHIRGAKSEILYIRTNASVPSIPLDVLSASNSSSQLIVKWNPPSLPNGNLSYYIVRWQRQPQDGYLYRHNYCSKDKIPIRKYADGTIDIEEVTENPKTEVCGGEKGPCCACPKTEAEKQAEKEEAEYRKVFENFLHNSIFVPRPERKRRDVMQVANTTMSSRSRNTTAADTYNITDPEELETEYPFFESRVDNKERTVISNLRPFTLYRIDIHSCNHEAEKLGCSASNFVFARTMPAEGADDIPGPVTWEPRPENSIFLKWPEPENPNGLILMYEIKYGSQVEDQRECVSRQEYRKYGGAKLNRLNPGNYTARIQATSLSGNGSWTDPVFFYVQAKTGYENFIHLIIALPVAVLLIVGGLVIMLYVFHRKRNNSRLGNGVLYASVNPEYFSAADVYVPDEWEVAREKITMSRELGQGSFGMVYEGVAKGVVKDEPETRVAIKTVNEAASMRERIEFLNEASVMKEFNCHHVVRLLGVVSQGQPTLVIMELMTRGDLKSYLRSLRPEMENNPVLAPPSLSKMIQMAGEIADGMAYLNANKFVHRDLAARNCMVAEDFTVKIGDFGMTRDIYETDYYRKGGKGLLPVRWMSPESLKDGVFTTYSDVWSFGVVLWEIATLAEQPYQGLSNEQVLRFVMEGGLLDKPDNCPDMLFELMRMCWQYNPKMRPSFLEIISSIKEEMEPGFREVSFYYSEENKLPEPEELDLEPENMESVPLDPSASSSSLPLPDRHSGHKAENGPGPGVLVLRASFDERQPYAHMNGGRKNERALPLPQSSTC

Assay [2] has as its target T1, IGF-1R. Put plainly: Example B-2: IGF-1R Assay (PathHunter cell lines, EC80 agonist challenge). Type of assay: cell-based. Conditions: read-out: IC50 (Biological Activity against IGF-1R). In short, it runs like this: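 PathHunter cells were pre-incubated with compound for 60 min at 37° C. (1% vehicle), then challenged with EC80 agonist for 3 hours at room temperature. Chemiluminescent detection followed after 1 h. Percent inhibition was calculated relative to EC80 and vehicle controls, and IC50 values were binned into categories.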
Target sequence in this assay (P08069 31-1367, species assumed): as the sequence (P08069 31-1367) above

pIC50: −log10 of the molar value. Where only a bound is given, the exact number is not on record here.

As a reminder, the pIC50 is the IC50 on a negative log10 scale, so that one unit is a factor of ten. With `COc1cc(Nc2nccc(Nc3cc4cccc(F)c4[nH]c3=O)n2)cnc1C1CCNCC1` [Compound 223, 8-fluoro-3-{2-[5-methoxy-6-(4-piperidyl)-3-pyridylamino]-4-pyrimidinylamino}-1,2-dihydro-2-quinolinone], the pIC50 on IGF-1R [1] is ≥ 6.30; on IGF-1R [2], 5.70 to 6.30.

For the molecule `COc1nc(C2CCOCC2)ccc1Nc1nccc(Nc2cc3cccc(F)c3[nH]c2=O)n1` [Compound 224, 8-fluoro-3-{2-[2-methoxy-6-(tetrahydro-2H-pyran-4-yl)-3-pyridylamino]-4-pyrimidinylamino}-1,2-dihydro-2-quinolinone], the pIC50 on IGF-1R [1] was ≥ 6.30; on IGF-1R [2], 5.70 to 6.30.

Take `COc1cc(Nc2nccc(Nc3cnc4c(F)c(F)ccc4c3)n2)cnc1O[C@H]1C[C@@H](N(C)C)C1` [Compound 291, 4-(7,8-difluoro-3-quinolylamino)-2-{5-methoxy-6-[(1s,3s)-3-(dimethylamino)cyclobutoxy]-3-pyridylamino}pyrimidine]: the values for the pIC50 on IGF-1R [1] and at IGF-1R [2] were ≥ 6.30 and 5.70 to 6.30, respectively.

On to `COc1cc(Nc2nccc(Nc3cnc4c(c3)OCCO4)n2)ccc1O[C@H]1C[C@H](N(C)C)C1` [Compound 357, 4-(2,3-dihydro-1,4-dioxa-5-aza-7-naphthylamino)-2-{3-methoxy-4-[(1r,3r)-3-(dimethylamino)cyclobutoxy]phenylamino}pyrimidine], for which the negative-log IC50 (pIC50) on IGF-1R [1] and on IGF-1R [2] was ≥ 6.30 in each case.

On to `COc1cc(N2CCN(C)CC2)ccc1Nc1nccc(Nc2cnc3ccc(Br)cc3c2)n1` [Compound 466, 4-(6-bromo-3-quinolylamino)-2-[2-methoxy-4-(4-methyl-1-piperazinyl)phenylamino] pyrimidine], for which the pIC50 on IGF-1R [1] was ≥ 6.30; on IGF-1R [2] it was 5.70 to 6.30.

As for `COc1cc(N2CCNC3(CC3)C2)ncc1Nc1nccc(Nc2cnc3ccc(Cl)cc3c2)n1` [Compound 496, 4-(6-chloro-3-quinolylamino)-2-{6-(4,7-diaza-7-spiro[2.5]octyl)-4-methoxy-3-pyridylamino}pyrimidine], the pIC50 at IGF-1R [1] was ≥ 6.30; on IGF-1R [2], 5.70 to 6.30.

Consider `CN(C)CC1COc2cc(Nc3nccc(Nc4cnc5ccc(C(F)F)cc5c4)n3)ccc2O1` (stereo not shown) [Compound 497, 4-[6-(difluoromethyl)-3-quinolylamino]-2-{2-[(dimethylamino)methyl]-2,3-dihydro-1,4-benzodioxin-6-ylamino}pyrimidine], for which the negative logarithm of the IC50 (pIC50) on IGF-1R [1] and at IGF-1R [2] was ≥ 6.30 throughout.

Regarding `CN(C)CC(=O)N1CCc2cc(Nc3nccc(Nc4cnc5cc(F)c(F)cc5c4)n3)cnc21` [Compound 498, 1-{5-[4-(6,7-difluoro-3-quinolylamino)-2-pyrimidinylamino]-1,7-diaza-1-indanyl}-2-(dimethylamino)-1-ethanone], the negative logarithm of the IC50 (pIC50) on IGF-1R [1] and at IGF-1R [2] was 5.70 to 6.30 throughout.

As for `CN(C)CC1COc2cc(Nc3nccc(Nc4cnc5cc(F)c(F)cc5c4)n3)cnc2O1` (stereo not shown) [Compound 499, 4-(6,7-difluoro-3-quinolylamino)-2-{3-[(dimethylamino)methyl]-2,3-dihydro-1,4-dioxa-5-aza-7-naphthylamino}pyrimidine], the negative logarithm of the IC50 (pIC50) on IGF-1R [1] and on IGF-1R [2] was 5.70 to 6.30 each time.

Regarding `CN(C)CC1COc2ncc(Nc3nccc(Nc4cnc5ccc(Cl)cc5c4)n3)cc2O1` (stereo not shown) [Compound 500, 4-(6-chloro-3-quinolylamino)-2-{2-[(dimethylamino)methyl]-2,3-dihydro-1,4-dioxa-5-aza-7-naphthylamino}pyrimidine], the negative-log IC50 (pIC50) on IGF-1R [1] is 5.00 to 5.70; at IGF-1R [2], 5.70 to 6.30.

Regarding `c1ccc2ncc(Nc3ccnc(Nc4ccc5c(ccn5CC5CCOCC5)c4)n3)cc2c1` [Compound 501, 4-(3-quinolylamino)-2-{1-[(tetrahydro-2H-pyran-4-yl)methyl]-5-indolylamino}pyrimidine], the negative logarithm of the IC50 (pIC50) at IGF-1R [1] and on IGF-1R [2] was 5.70 to 6.30 in each case.

Regarding `c1ccc2ncc(Nc3ccnc(Nc4ccc5ccn(CC6CCCC6)c5c4)n3)cc2c1` [Compound 502, 2-[1-(cyclopentylmethyl)-6-indolylamino]-4-(3-quinolylamino)pyrimidine], the pIC50 on IGF-1R [1] and on IGF-1R [2] was ≥ 6.30 throughout.

In the case of `c1ccc2ncc(Nc3ccnc(Nc4ccc5ccn(CC6CCCCC6)c5c4)n3)cc2c1` [Compound 503, 2-[1-(cyclohexylmethyl)-6-indolylamino]-4-(3-quinolylamino)pyrimidine], the negative-log IC50 (pIC50) at IGF-1R [1] and on IGF-1R [2] was 5.00 to 5.70 in each case.

For the molecule `c1ccc2ncc(Nc3ccnc(Nc4ccc5c(c4)OCCO5)n3)cc2c1` [Compound 505, 2-(2,3-dihydro-1,4-benzodioxin-6-ylamino)-4-(3-quinolylamino)pyrimidine], the pIC50 at IGF-1R [1] and at IGF-1R [2] was ≥ 6.30 throughout.
